The test system of series [1] is E. coli ATCC 25922. Kind of series: Antimicrobial efficacy (resazurin virtual colony count). Format: cell-based, Escherichia coli. Conditions: PBS (high / physiologically relevant ionic strength), pH 7.4. As for the experimental part:
Antimicrobial Studies. The phosphate buffers used for antimicrobial assays were supplemented with non-nitrogenous energy source, 0.1% (w/v) glucose. To conduct antimicrobial assays, bacterial strains were first suspended in respective buffers. E. coli (ATCC 25922) and B. cereus (ATCC 11778) were grown in MHB II up to OD600 nm˜1 and stored as frozen stock in 20% glycerol at −80° C. Occasionally they were thawed and enumerated by serial dilution and spreading on MHB II agar plates. The concentrations of the frozen stocks of E. coli and B. cereus strains were 1.0-1.1*10^8 CFU/mL with OD600 nm˜0.8. In case of other bacterial strains, they were grown on the days of experiment up to OD600 nm˜1-1.5 and then adjusted to OD600 nm˜0.8. The growth media of the drug-resistant bacterial strains were supplemented with few of the respective antibiotics against which they are resistant. 200 μL of the 0.8 OD600 nm culture were added to 10 mL of the respective buffer to obtain a suspension which was used to incubate with equal volumes of peptide solution in the same buffer.
Antimicrobial assays in different phosphate buffers and serum were conducted by adapting, with necessary modifications a fast high-throughput method based on Virtual Colony Count technique and later modified by incorporating the use of resazurin. At first serial dilution of a microbial strain in respective buffer was poured in the wells of 96 well polypropylene microplate and was then added with same volume of 2× MHB II supplemented with 80 μg/mL resazurin and incubated at 35° C. in a Gemini EM Microplate Reader (Molecular Devices) overnight with intermittent shaking. As the microbe grows it reduces non-fluorescent resazurin to fluorescent resorufin and the fluorescent intensity of each well were measured (excitation=570 nm, emission=590 nm) each 5 min for 15 hours. The time (t, min) to reach a certain fluorescence (RFU=20000 with respect to the starting fluorescence) was correlated with the initial bacterial concentration (in CFU/mL) in the particular well to obtain a calibration plot of the form: Log([Bacteria],CFU/mL)=b+m*t Equation 4: […]
To obtain antimicrobial efficacy of the peptides, 50 μL of serially diluted peptide in a buffer was incubated with 50 μL microbial suspension in the same buffer for 3 hours in black polypropylene 96 well plate. After incubation the wells were added with 100 μL of 2× MHB II supplemented with 80 μg/mL resazurin and then incubated with continuous fluorescence reading for overnight time period as described earlier. The surviving microbial population (CFU/mL) in each well were calculated by first finding the time to reach a fluorescence of RFU=20000 and the correlation (4) for the specific microbial strain and buffer. % Survival represents the proportion of viable cells in peptide treated cells relative to cells treated with the respective buffer alone. Equation 5: […]
Finally, the antimicrobial effectiveness of each peptide against the particular microbial strain in the specific buffer was determined by plotting % microbial survival as a function of the log of the concentration of the peptide and fitting the resulting data to a variable-slope sigmoidal regression model (equation 6). In this equation, log(EC50) represents the log of the concentration of the peptide required to kill half of the microbial population, where Smin and Smax correspond to the minimal and maximal microbial survival values (respectively), and H, Hill slope, is the parameter defining the steepness of the transition slopes of sigmoidal survival curves. % Microbial survival=Smin+(Smax−Smin)/(1+10^log(EC^50^)-log[peptide]*H) Equation 6: […]
The antimicrobial efficacies of the peptides were first tested against the model Gram-negative bacteria, E. coli ATCC 25922, in different phosphate buffers having varied ionic strengths and compositions. The phosphate buffers that were used included 10 mM sodium phosphate (calculated ionic strength˜25 mM), PBS and DPBS. […]

Series [2] can be described thus: Endotoxin binding: competitive displacement of BODIPY TR-Cadaverine from LTA. More on the design: species or system Staphylococcus aureus. The settings on record: 5 μM peptide, 10 μM BC, 10 μg/mL LTA, 10 mM Na-PO4. As for the experimental part:
(§1) FIGS. 2A-2B are graphs showing endotoxin binding. The figures depict the competitive displacement of BC from LPS/LTA by the peptides. 5 μM of each peptide was incubated with 10 μM BC and 10 μg/mL LPS from E. coli (0111:B4) or LTA from S. aureus. Fluorescence intensity was measured at excitation=580 nm and emission=620 nm. 10 μM BC without endotoxin was used as 100% displacement while 10 μM BC with 10 μg/mL LPS/LTA without any peptide as 0% displacement and the % displacement of BC by each peptide was calculated accordingly. […] had been used as a positive control. The horizontal dotted line coincides with the % displacement of BC by ATRA1 on the y-axis.
(§2) FIGS. 6A-6B are graphs showing endotoxin (LPS (FIG. 6A) and LTA (FIG. 6B)) binding. Competitive displacement of BC from LPS/LTA. In each case, 5 μM peptide was incubated with 10 μM BC and 10 μg/mL LPS from E. coli (0111:B4) or LTA from S. aureus. Fluorescence intensity was measured using excitation=580 nm and emission=620 nm. As a positive control 10 μM BC without endotoxin was used as a reference for 100% displacement while 10 μM BC with 10 μg/mL LPS/LTA without any peptide as a negative control and a reference for 0% displacement. These controls were used to calculate % BC displacement for each peptide.
(§3) Endotoxin Binding. The binding of endotoxin (LPS/LTA) was evaluated using a fluorogenic conjugateBODIPY TR-Cadaverine (BC). BC binds endotoxin loses its fluorescence. The peptide competitively displaces BC from endotoxin and the fluorescence is reestablished. Competitive inhibition of endotoxin-BC binding was utilized due to presence of peptides already in complexion with endotoxin. 25 μL of 20 μM of peptides in 10 mM Na—PO4 buffer were incubated with 25 μL of LPS (40 μg/mL) or LTA (40 μg/mL) for 15 min and then added with 50 μL of BC (20 uM). Peptides bind to LPS or LTA and competitively prevents BC bind to the endotoxin. BC loses its fluorescence on binding to endotoxin. The fluorescence intensity of the unbound BC was measured at excitation=580 nm and emission=620 nm.
(§4) BC contains two functional moieties: BODIPY (boron-dipyrromethene) and cadaverine connected via a carboxamide. BODIPY is the fluorophore of BC and fluoresces in the free state in solution but loses fluorescence when bound to LPS/LTA. The competitive displacement of BC from LPS/LTA by AMPs and thus regeneration of the fluorescence has frequently been used to estimate the binding strength of AMPs with LPS/LTA. In the present studies, 5 μM of each peptide was used to displace BC from LPS/LTA. […] Such observation contradicts the initial assumption that substitution of Lys with arginine would result in increased efficiency of LPS binding. However, with sequential substitutions of Lys with arginine, starting with ATRA1-AR, peptide variants show increased LPS binding with each additional arginine substitution. In terms of LPS binding: ATRA1-AR<ATRA1-AR2<ATRA1-AR3. In ATRA1-R3, the lysine residues at 9th, 5th and 1st positions of ATRA1 were substituted with arginine. In ATRA1-R6 all of the lysine residues were replaced with arginine.

Series [3] in a line: Endotoxin binding: competitive displacement of BODIPY TR-Cadaverine from LPS. The arrangement: species or system Escherichia coli. The settings on record: 5 μM peptide, 10 μM BC, 10 μg/mL LPS, low ionic-strength 10 mM Na-PO4. As for the experimental part: as §1, §2, §3, §4
Series [4] relates to primary lung epithelium cells. Kind of series: Cytotoxicity (Alamar blue). The class given is cell-based, human. The settings on record: ~16 hours (overnight), reduced serum conditions. As for the experimental part:
FIGS. 11A-11B are graphs showing cytotoxicity against primary lung epithelium cells in serum-free condition. Cells were seeded in complete growth medium (Minimal essential medium supplemented with 10% fetal bovine serum) at near-confluence into a 96-well plate and allowed to settle for 24-hours. Media was then replaced to OptiMEM I reduced serum medium containing peptide or vehicle alone (DBPS) and cells were incubated overnight (16 hours). A resazurin based dye (Alamar blue) was added directly to media and conversion of resazurin to resorufin was evaluated following two hours. % Survival represents the proportion of viable cells in peptide treated cells relative to cells treated with vehicle alone. […] Each peptide was tested in triplicate.
FIG. 12 is a graph showing comparison of toxicities against Lung Primary Epithelial cells and Lung Cancerous Epithelial Cells, derived from H358 cell-line. […] Each peptide was tested in triplicate.
Cytotoxicity. Cells were seeded in complete growth medium (Minimal Essential Medium, MEMα, supplemented with 10% Fetal Bovine Serum) into a culture-treated 96-well plate at a density of 25000 cells per well. After 24 hours, culture media was aspirated and replaced with media containing the selected peptide. No-serum experiments were conducted in Opti-MEM I reduced serum media (ThermoFisher, 31985062) and 10% serum experiments were performed in complete growth medium. In all cases, DBPS was used as a vehicle only control and buffer to serially dilute the peptides. After exposure to the peptides or vehicle-alone for the defined period, Alamar blue dye (resazurin) was added directly to the media and allowed to incubate for two hours. Following incubation, A570/A600 measurements were made to calculate reduction of resazurin dye to resorufin. A ratio of reduction in treated versus untreated cells was calculated in order to determine overall cell viability. The human cells were always maintained in a 37° C. incubator under 5% CO2.

In the case of KKAKKFFKKLK (SEQ ID NO: 5) [ATRA1-AK], in series [1], the “antimicrobial efficacy, in words” value is listed as “lost activity in PBS”. In series [2], the “LTA binding (BC displacement), in words” value is “highest LTA binding”. The “LPS binding (BC displacement), in words” value in series [3] is listed as “highest LPS binding among all the peptides”.
As for `CC[C@H](C)[C@H](NC(=O)CN)C(=O)NCC(=O)N[C@@H](C)C(=O)N[C@H](C(=O)N[C@@H](CC(C)C)C(=O)N[C@@H](CCCCN)C(=O)N[C@H](C(=O)N[C@@H](CC(C)C)C(=O)N[C@H](C(=O)N[C@H](C(=O)NCC(=O)N[C@@H](CC(C)C)C(=O)N1CCC[C@H]1C(=O)N[C@@H](C)C(=O)N[C@@H](CC(C)C)C(=O)N[C@H](C(=O)N[C@@H](CO)C(=O)N[C@@H](Cc1c[nH]c2ccccc12)C(=O)N[C@H](C(=O)N[C@@H](CCCCN)C(=O)N[C@@H](CCCNC(=N)N)C(=O)N[C@@H](CCCCN)C(=O)N[C@@H](CCCNC(=N)N)C(=O)N[C@@H](CCC(N)=O)C(=O)N[C@@H](CCC(N)=O)C(N)=O)[C@@H](C)CC)[C@@H](C)CC)[C@@H](C)O)[C@@H](C)O)C(C)C)C(C)C` [melittin], in series [4], the “cytotoxicity, in words” value is on record as “killed the cells at the highest degree”.

For the origin of these results see patent publication US11447533B2, “Antimicrobial and anticancer peptides and conjugates and compositions, methods, articles and kits relating thereto” (George Mason Research Foundation, Inc., priority 2018, dated 2022).
